Data as given in patent US20240024273A1, “TOPICAL ADMINISTRATION OF 2-(DIETHYLAMINO)ETHYL 2-(4-ISOBUTYLPHENYL)PROPRIONATE FOR TREATMENT OF DISEASES” (TECHFIELDS PHARMA CO., LTD., priority 2020, published 2024).

System: Subjects with Osteoarthritis of the Knee
Test: Second Phase 2 study: safety (treatment-emergent adverse events)
Format: in vivo, human
Conditions: BID
Excerpt: Safety assessments will be performed at each visit and will include assessment of AEs, vital signs (blood pressure, pulse rate, and oral temperature), clinical laboratories, physical examination, skin irritation, and electrocardiograms (ECGs) as indicated in the study flow chart, Table 47.
Safety assessments will include AEs, vital signs (blood pressures, pulse rate, and oral temperature), clinical laboratories, physical examination, skin irritation, and ECGs at various time points during the study as indicated in the study flow chart.
Adverse events of interest include: local skin reactions around the treated knee(s), upper stomach pain, GI bleeding, serious cardiovascular side effects (e.g., thrombotic events, myocardial infarction, or stroke), jaundice, elevated liver function tests, and nausea.
Safety analyses will be conducted on the SAS. Safety parameters will be listed and summarized using standard descriptive statistics, as appropriate. No formal statistical analyses are planned.

[1] = moderate adverse events, 4.375 mg/knee, N = 71
[2] = moderate adverse events, 8.75 mg/knee, N = 70
[3] = possibly, probably, or definitely related to study drug, 4.375 mg/knee, N = 71
[4] = possibly, probably, or definitely related to study drug, 8.75 mg/knee, N = 70
[5] = possibly, probably, or definitely related to study drug, 17.5 mg/knee, N = 70

CCN(CC)CCOC(=O)C(C)c1ccc(CC(C)C)cc1 (stereo not shown) [2-(diethylamino)ethyl 2-(4-isobutylphenyl)propionate]
Gastroenteritis: subjects with adverse events [1]: 1
Gastroesophageal reflux disease: number of adverse events [1]: 1
Gastroesophageal reflux disease: percentage of subjects with adverse events [1]: 1.4%
Gastroesophageal reflux disease: subjects with adverse events [1]: 1
Total Adverse Events: number of adverse events [1]: 3
Total Adverse Events: percentage of subjects with adverse events [1]: 4.2%
Total Adverse Events: subjects with adverse events [1]: 3
Upper Respiratory Tract Infection: number of adverse events [1]: 1
Upper Respiratory Tract Infection: percentage of subjects with adverse events [1]: 1.4%
Upper Respiratory Tract Infection: subjects with adverse events [1]: 1
Total Adverse Events: number of adverse events [2]: 4
Total Adverse Events: percentage of subjects with adverse events [2]: 5.7%
Total Adverse Events: subjects with adverse events [2]: 4
Upper Respiratory Tract Infection: number of adverse events [2]: 4
Upper Respiratory Tract Infection: percentage of subjects with adverse events [2]: 1.4%
Upper Respiratory Tract Infection: subjects with adverse events [2]: 4
Abdominal Pain Upper: number of adverse events [3]: 1
Abdominal Pain Upper: percentage of subjects with adverse events [3]: 1.4%
Abdominal Pain Upper: subjects with adverse events [3]: 1
Administration Site Conditions: number of adverse events [3]: 1
Administration Site Conditions: percentage of subjects with adverse events [3]: 1.4%
Administration Site Conditions: subjects with adverse events [3]: 1
Alanine Aminotransferase Increased: number of adverse events [3]: 1
Alanine Aminotransferase Increased: percentage of subjects with adverse events [3]: 1.4%
Alanine Aminotransferase Increased: subjects with adverse events [3]: 1
Application Site Irritation: number of adverse events [3]: 1
Application Site Irritation: percentage of subjects with adverse events [3]: 1.4%
Application Site Irritation: subjects with adverse events [3]: 1
Aspartate Aminotransferase Increased: number of adverse events [3]: 3
Aspartate Aminotransferase Increased: percentage of subjects with adverse events [3]: 4.2%
Aspartate Aminotransferase Increased: subjects with adverse events [3]: 3
Gamma-Glutamyltransferase Increased: number of adverse events [3]: 2
Gamma-Glutamyltransferase Increased: percentage of subjects with adverse events [3]: 2.8%
Gamma-Glutamyltransferase Increased: subjects with adverse events [3]: 2
Headache: number of adverse events [3]: 1
Headache: percentage of subjects with adverse events [3]: 1.4%
Headache: subjects with adverse events [3]: 1
Hypertriglyceridemia: number of adverse events [3]: 6
Hypertriglyceridemia: percentage of subjects with adverse events [3]: 7.0%
Hypertriglyceridemia: subjects with adverse events [3]: 5
Positive Fecal Occult Blood Test: number of adverse events [3]: 6
Positive Fecal Occult Blood Test: percentage of subjects with adverse events [3]: 7.0%
Positive Fecal Occult Blood Test: subjects with adverse events [3]: 5
Throat Irritation: number of adverse events [3]: 2
Throat Irritation: percentage of subjects with adverse events [3]: 2.8%
Throat Irritation: subjects with adverse events [3]: 2
Total Adverse Events: number of adverse events [3]: 26
Total Adverse Events: percentage of subjects with adverse events [3]: 33.8%
Total Adverse Events: subjects with adverse events [3]: 24
White Blood Cell Count Decreased: number of adverse events [3]: 2
White Blood Cell Count Decreased: percentage of subjects with adverse events [3]: 2.8%
White Blood Cell Count Decreased: subjects with adverse events [3]: 2
Abdominal Discomfort: number of adverse events [4]: 4
Abdominal Discomfort: percentage of subjects with adverse events [4]: 4.3%
Abdominal Discomfort: subjects with adverse events [4]: 3
Abdominal Pain Upper: number of adverse events [4]: 1
Abdominal Pain Upper: percentage of subjects with adverse events [4]: 1.4%
Abdominal Pain Upper: subjects with adverse events [4]: 1
Administration Site Conditions: number of adverse events [4]: 1
Administration Site Conditions: percentage of subjects with adverse events [4]: 1.4%
Administration Site Conditions: subjects with adverse events [4]: 1
Alanine Aminotransferase Increased: number of adverse events [4]: 1
Alanine Aminotransferase Increased: percentage of subjects with adverse events [4]: 1.4%
Alanine Aminotransferase Increased: subjects with adverse events [4]: 1
Application Site Irritation: number of adverse events [4]: 1
Application Site Irritation: percentage of subjects with adverse events [4]: 1.4%
Application Site Irritation: subjects with adverse events [4]: 1
Diarrhoea: number of adverse events [4]: 2
Diarrhoea: percentage of subjects with adverse events [4]: 2.9%
Diarrhoea: subjects with adverse events [4]: 2
Dizziness: number of adverse events [4]: 2
Dizziness: percentage of subjects with adverse events [4]: 2.9%
Dizziness: subjects with adverse events [4]: 2
Headache: number of adverse events [4]: 6
Headache: percentage of subjects with adverse events [4]: 5.7%
Headache: subjects with adverse events [4]: 4
Hypertriglyceridemia: number of adverse events [4]: 3
Hypertriglyceridemia: percentage of subjects with adverse events [4]: 4.3%
Hypertriglyceridemia: subjects with adverse events [4]: 3
Positive Fecal Occult Blood Test: number of adverse events [4]: 6
Positive Fecal Occult Blood Test: percentage of subjects with adverse events [4]: 7.1%
Positive Fecal Occult Blood Test: subjects with adverse events [4]: 5
Throat Irritation: number of adverse events [4]: 1
Throat Irritation: percentage of subjects with adverse events [4]: 1.4%
Throat Irritation: subjects with adverse events [4]: 1
Total Adverse Events: number of adverse events [4]: 34
Total Adverse Events: percentage of subjects with adverse events [4]: 41.4%
Total Adverse Events: subjects with adverse events [4]: 29
White Blood Cell Count Decreased: number of adverse events [4]: 2
White Blood Cell Count Decreased: percentage of subjects with adverse events [4]: 2.9%
White Blood Cell Count Decreased: subjects with adverse events [4]: 2
Abdominal Discomfort: number of adverse events [5]: 1
Abdominal Discomfort: percentage of subjects with adverse events [5]: 1.4%
Abdominal Discomfort: subjects with adverse events [5]: 1
Abdominal Pain Upper: number of adverse events [5]: 2
Abdominal Pain Upper: percentage of subjects with adverse events [5]: 1.4%
Abdominal Pain Upper: subjects with adverse events [5]: 1
Administration Site Conditions: number of adverse events [5]: 4
Administration Site Conditions: percentage of subjects with adverse events [5]: 5.7%
Administration Site Conditions: subjects with adverse events [5]: 4
Application Site Irritation: number of adverse events [5]: 1
Application Site Irritation: percentage of subjects with adverse events [5]: 1.4%
Application Site Irritation: subjects with adverse events [5]: 1
Application Site Rash: number of adverse events [5]: 3
Application Site Rash: percentage of subjects with adverse events [5]: 4.3%
Application Site Rash: subjects with adverse events [5]: 3
Aspartate Aminotransferase Increased: number of adverse events [5]: 1
Aspartate Aminotransferase Increased: percentage of subjects with adverse events [5]: 1.4%
Aspartate Aminotransferase Increased: subjects with adverse events [5]: 1
Dizziness: number of adverse events [5]: 1
Dizziness: percentage of subjects with adverse events [5]: 1.4%
Dizziness: subjects with adverse events [5]: 1
Headache: number of adverse events [5]: 1
Headache: percentage of subjects with adverse events [5]: 1.4%
Headache: subjects with adverse events [5]: 1
Hypertriglyceridemia: number of adverse events [5]: 6
Hypertriglyceridemia: percentage of subjects with adverse events [5]: 8.6%
Hypertriglyceridemia: subjects with adverse events [5]: 6
Positive Fecal Occult Blood Test: number of adverse events [5]: 5
Positive Fecal Occult Blood Test: percentage of subjects with adverse events [5]: 7.1%
Positive Fecal Occult Blood Test: subjects with adverse events [5]: 5
Total Adverse Events: number of adverse events [5]: 25
Total Adverse Events: percentage of subjects with adverse events [5]: 35.7%
Total Adverse Events: subjects with adverse events [5]: 25
